Reference: publication PMC11413854, “Reversible Control of Native GluN2B-Containing NMDA Receptors with Visible Light” (ACS Chemical Neuroscience, 2024)
Where two headings read alike, the source gives them in different places.

Legend:
Type in all cases: cell-based
[1] = target: GluN1/GluN2B-ΔNTD receptors (Rattus norvegicus (GluN1); Mus musculus (GluN2B), UniProt P35439+Q01097); experiment: TEVC on Xenopus oocytes, GluN2B NTD-deleted receptors; details: for Relative current (IOpto/I0): GluN1/GluN2B-DeltaNTD
GluN1/GluN2B-ΔNTD receptors, sequence (Q01097 395-1482, stated change not applied, other chains not shown): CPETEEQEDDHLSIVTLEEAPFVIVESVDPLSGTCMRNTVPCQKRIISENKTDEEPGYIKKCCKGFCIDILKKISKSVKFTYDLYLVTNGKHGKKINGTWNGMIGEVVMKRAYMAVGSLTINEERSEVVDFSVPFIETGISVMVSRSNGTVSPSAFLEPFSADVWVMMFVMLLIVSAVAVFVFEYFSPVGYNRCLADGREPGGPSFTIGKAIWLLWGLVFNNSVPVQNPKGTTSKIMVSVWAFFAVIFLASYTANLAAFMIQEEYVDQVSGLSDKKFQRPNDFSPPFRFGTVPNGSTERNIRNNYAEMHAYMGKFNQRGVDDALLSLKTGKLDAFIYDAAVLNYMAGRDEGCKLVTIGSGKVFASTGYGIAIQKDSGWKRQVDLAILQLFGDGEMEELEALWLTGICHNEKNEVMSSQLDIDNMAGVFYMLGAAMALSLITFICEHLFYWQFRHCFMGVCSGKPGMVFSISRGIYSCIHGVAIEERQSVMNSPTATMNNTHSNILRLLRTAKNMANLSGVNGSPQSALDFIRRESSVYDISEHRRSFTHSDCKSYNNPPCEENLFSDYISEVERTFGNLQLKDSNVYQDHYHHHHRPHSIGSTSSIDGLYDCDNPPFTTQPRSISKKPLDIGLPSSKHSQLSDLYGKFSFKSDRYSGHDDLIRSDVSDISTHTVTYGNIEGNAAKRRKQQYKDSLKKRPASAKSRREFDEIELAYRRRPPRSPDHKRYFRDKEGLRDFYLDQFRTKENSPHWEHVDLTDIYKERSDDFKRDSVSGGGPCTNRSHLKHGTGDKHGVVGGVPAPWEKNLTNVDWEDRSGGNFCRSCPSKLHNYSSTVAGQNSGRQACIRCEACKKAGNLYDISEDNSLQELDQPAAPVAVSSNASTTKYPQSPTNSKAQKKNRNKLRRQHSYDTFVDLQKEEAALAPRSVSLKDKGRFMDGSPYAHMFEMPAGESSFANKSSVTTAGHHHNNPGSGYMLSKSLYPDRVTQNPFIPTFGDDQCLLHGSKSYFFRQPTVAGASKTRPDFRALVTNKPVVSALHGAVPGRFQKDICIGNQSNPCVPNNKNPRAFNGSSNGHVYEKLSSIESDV
From the text: We finally investigated the location of the OptoNAM-3 binding-site on the receptor. […] The binding site for GluN2B-selective antagonists at the GluN1/GluN2B NTD dimer interface contains two partially overlapping pockets that accommodate GluN2B-selective NAMs of distinct chemical scaffolds:[19] either scaffolds related to ifenprodil or scaffolds related to another GluN2B-selective NAM called EVT-101.[47]
(§1) We used cDNA coding for rat GluN1–1a (named GluN1 herein) (GenBank: U08261.1), rat GluN2A (GenBank: D13211.1), mouse GluN2B (GenBank: D10651.2), rat GluA1 flop (GenBank: M36418.2), and rat Myc-GluA2(Q)-flip (GenBank: AF164344.1) cloned into pcDNA3-based expression plasmids. GluK2 (GenBank: Z11548.1) corresponds to the fully RNA-edited version.[80] The GluN2B-ΔNTD construct is from ref[45] and GluN2B–N615K is from ref[81]. Single mutants GluN2B-Q110G and GluN1-L135H were from ref[19]. The GluA2 cDNA contains a Myc tag ([…]) fused between the signal peptide and the N-terminus sequences, and the GluA2 subunit is […] for its Q/R/N site (GluA2(Q)) to allow permeation of homomeric GluA2 receptors.[2] cDNAs coding for rat GluN2C (GenBank: M91563.1) and GluN2D subunits (GenBank: L31611.1) were in prK5 plasmids.
Expression of recombinant NMDA receptors was obtained by oocyte nuclear coinjection of 37 nL of a mixture of cDNAs (at 30 ng/μL) coding for GluN1–1a and various GluN2 subunits (ratio 1:1). The protocol in ref[43] was followed for the expression of GluN1/GluN2A/GluN2B triheteromers. The oocytes were transferred in 96-well plates filled with Barth solution (in mM: 88 NaCl, 1 KCl, 0.33 Ca(NO3)2, 0.41 CaCl2, 0.82 MgSO4, 2.4 NaHCO3, and 7.5 HEPES, pH adjusted to 7.3 with NaOH), supplemented with gentamicin ([…]) and 50 μM APV, a selective NMDA receptor antagonist. Plates were then stored at 18 °C for 24 h for GluN1/GluN2A expression and for 48––72 h for the expression of GluN1/Glu2B, GluN1/GluN2A/GluN2B, and mutants.
TEVC recordings were performed 1–3 days following injection. TEVC recordings were performed using an Oocyte Clamp amplifier OC-725 (Warner Instruments) and computer-controlled via a 1440A Digidata (Molecular Devices). Currents were sampled at 100 Hz and low-pass-filtered at 20 Hz using an 8-pole Bessel filter (900 Series, Frequency Devices Inc.). Data were collected with Clampfit 10.3. During the recording, the cells were continuously perfused with external recording Ringer solution at pH 7.3 (in mM: 100 NaCl, 0.3 BaCl2, 5 HEPES, and 2.5 KCl, pH adjustment to 7.3 by the addition of NaOH). The NMDA currents were induced by simultaneous application of L-glutamate and glycine (agonist solution) at saturating concentration (100 μM each), and DTPA (10 μM) to prevent receptor inhibition by ambient zinc (∼20 nM).[83] A control solution (100 μM glycine and 10 μM DTPA in Ringer pH 7.3) was used for washout of drug and test solutions. AMPA and kainate receptor currents were induced in the same conditions as NMDA currents (100 μM glutamate and glycine + 10 μM DTPA). Oocytes expressing GluK2 kainate receptors were treated with concanavalin A ([…], equivalent to 1.1 mg/mL) during 10 min before recording to decrease receptor desensitization. Unless notified, recordings were performed at a holding potential of −60 mV. All experiments were performed at room temperature.
OptoNAMs were diluted as stock solutions of 50 to 0.5 mM in DMSO. On the day of the experiment, they were diluted to the appropriate concentration in the recording solution and kept in the dark during the whole duration of the experiment to avoid photoconversion.

GluN1/GluN2C = target: T1, GluN1/GluN2C (Rattus norvegicus, UniProt P35439+Q00961); experiment: TEVC on Xenopus oocytes, GluN1/GluN2C diheteromers; details: 1 µM trans-OptoNAM-3 (dark); listed as trans-OptoNAM-3
T1 construct: expressed in transfected cells; host or cells: Xenopus laevis oocytes (nuclear cDNA injection)
T1 sequence (Q00961 20-1237, other chains not shown): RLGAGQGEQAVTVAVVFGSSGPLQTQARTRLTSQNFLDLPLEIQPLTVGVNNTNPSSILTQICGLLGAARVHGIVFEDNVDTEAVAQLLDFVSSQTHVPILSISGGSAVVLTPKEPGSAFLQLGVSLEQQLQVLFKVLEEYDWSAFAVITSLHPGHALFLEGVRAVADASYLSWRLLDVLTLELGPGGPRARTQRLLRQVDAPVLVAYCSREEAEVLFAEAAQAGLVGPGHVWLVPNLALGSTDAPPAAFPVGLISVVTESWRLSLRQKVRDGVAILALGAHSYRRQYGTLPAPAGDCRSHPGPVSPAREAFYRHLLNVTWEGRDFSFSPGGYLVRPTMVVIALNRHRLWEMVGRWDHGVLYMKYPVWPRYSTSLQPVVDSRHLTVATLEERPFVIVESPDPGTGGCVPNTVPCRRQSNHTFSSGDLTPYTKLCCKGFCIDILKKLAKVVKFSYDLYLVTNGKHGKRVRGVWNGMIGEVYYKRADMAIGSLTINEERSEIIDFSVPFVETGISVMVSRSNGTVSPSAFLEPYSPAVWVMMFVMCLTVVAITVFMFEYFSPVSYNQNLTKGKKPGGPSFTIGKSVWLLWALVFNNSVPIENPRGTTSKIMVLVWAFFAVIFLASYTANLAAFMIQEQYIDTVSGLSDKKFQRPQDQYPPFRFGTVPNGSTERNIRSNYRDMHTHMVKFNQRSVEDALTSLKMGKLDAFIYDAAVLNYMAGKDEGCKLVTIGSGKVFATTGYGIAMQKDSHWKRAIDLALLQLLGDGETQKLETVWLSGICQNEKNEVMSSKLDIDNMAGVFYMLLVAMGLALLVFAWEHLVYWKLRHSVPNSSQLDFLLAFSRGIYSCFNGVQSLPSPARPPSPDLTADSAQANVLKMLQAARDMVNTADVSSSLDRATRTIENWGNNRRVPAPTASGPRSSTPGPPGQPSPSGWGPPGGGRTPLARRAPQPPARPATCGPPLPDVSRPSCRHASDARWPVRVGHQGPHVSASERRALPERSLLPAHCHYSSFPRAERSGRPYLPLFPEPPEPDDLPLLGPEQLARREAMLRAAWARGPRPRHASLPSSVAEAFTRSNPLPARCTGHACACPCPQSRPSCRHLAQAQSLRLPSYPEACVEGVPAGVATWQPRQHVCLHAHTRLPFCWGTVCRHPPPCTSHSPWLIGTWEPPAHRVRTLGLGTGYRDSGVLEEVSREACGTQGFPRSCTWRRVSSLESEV
From the text: (§2) NMDARs exist as multiple subtypes in the brain that are formed by the combination of two GluN1 and either two identical (diheteromers) or different (triheteromers) GluN2 (GluN2A-D) subunits.[1] We assessed the selectivity of trans-OptoNAM-3 (dark PSS) for the other NMDAR subtypes.
as §1
(§3) Expression of recombinant NMDA receptors was obtained by oocyte nuclear coinjection of 37 nL of a mixture of cDNAs (at 30 ng/μL) coding for GluN1–1a and various GluN2 subunits (ratio 1:1). The protocol in ref[43] was followed for the expression of GluN1/GluN2A/GluN2B triheteromers. […]

GluN1/GluN2A = target: T2, GluN1/GluN2A (Rattus norvegicus, UniProt P35439+Q00959); experiment: TEVC on Xenopus oocytes, GluN1/GluN2A diheteromers; details: 1 µM trans-OptoNAM-3 (dark); listed as trans-OptoNAM-3
T2 construct: expressed in transfected cells; host or cells: Xenopus laevis oocytes (nuclear cDNA injection)
T2 sequence (Q00959 23-1464, other chains not shown): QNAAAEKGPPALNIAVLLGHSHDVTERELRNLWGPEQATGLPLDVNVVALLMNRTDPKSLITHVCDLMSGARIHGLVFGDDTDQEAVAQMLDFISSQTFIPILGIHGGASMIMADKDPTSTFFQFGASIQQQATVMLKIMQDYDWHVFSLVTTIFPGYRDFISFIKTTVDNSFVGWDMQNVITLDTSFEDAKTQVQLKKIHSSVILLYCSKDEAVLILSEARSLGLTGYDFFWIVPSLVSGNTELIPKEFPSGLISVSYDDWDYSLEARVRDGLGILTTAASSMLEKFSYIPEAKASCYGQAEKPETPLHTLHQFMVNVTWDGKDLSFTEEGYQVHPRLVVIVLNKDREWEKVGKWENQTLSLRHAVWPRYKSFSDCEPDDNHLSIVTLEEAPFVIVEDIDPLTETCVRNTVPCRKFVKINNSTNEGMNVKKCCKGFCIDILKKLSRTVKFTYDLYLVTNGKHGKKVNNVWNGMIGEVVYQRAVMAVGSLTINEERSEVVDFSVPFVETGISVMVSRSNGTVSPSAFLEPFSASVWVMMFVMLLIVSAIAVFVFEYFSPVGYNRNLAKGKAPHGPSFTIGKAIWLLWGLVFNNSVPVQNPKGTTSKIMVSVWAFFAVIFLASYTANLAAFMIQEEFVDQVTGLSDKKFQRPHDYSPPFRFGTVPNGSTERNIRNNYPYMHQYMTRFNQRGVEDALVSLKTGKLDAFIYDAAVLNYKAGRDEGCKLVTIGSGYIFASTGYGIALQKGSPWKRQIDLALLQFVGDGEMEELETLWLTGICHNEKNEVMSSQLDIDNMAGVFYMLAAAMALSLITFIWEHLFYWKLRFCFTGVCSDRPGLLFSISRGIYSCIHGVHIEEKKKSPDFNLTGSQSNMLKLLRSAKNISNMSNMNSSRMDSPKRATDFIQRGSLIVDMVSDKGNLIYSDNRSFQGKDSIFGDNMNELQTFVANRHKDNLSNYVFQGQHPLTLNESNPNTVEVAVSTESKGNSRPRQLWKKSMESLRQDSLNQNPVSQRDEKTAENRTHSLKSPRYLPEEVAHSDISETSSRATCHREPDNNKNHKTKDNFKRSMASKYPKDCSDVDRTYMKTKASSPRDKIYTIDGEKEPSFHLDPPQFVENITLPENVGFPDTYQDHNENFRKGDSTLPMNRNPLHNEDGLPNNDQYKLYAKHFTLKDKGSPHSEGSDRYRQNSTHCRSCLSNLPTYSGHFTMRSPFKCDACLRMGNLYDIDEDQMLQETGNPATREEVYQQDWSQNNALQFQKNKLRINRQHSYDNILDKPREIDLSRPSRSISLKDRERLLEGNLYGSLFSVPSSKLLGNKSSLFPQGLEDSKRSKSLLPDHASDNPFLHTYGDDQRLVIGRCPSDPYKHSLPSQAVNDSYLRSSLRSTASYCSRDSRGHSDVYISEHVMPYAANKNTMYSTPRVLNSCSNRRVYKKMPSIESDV
From the text: as §2, §1, §3

inhibition of GluN1/GluN2B-DeltaNTD ([1]; 1 µM trans-OptoNAM-3 (dark), calculated from the dose-response curve): 2.150%
IC50 ([1]; 365 nm PSS, read-out: IC50 on GluN1/GluN2B-ΔNTD receptors pre-illuminated with 365 nm): 25 ± 6 µM
Relative current (IOpto/I0) ([1]; OptoNAM-3 365 nm PSS, [OptoNAM-3] 0.3 µM): 0.952
Relative current (IOpto/I0) ([1]; OptoNAM-3 365 nm PSS, [OptoNAM-3] 2 µM): 0.900
Relative current (IOpto/I0) ([1]; OptoNAM-3 365 nm PSS, [OptoNAM-3] 5 µM): 0.779
Relative current (IOpto/I0) ([1]; OptoNAM-3 365 nm PSS, [OptoNAM-3] 20 µM): 0.661
Relative current (IOpto/I0) ([1]; OptoNAM-3 365 nm PSS, [OptoNAM-3] 30 µM): 0.421
Relative current (IOpto/I0) ([1]; OptoNAM-3 365 nm PSS, [OptoNAM-3] 67 µM): 0.119
Relative current (IOpto/I0) ([1]; OptoNAM-3 dark PSS (trans), [OptoNAM-3] 0.3 µM): 0.969
Relative current (IOpto/I0) ([1]; OptoNAM-3 dark PSS (trans), [OptoNAM-3] 2 µM): 0.866
Relative current (IOpto/I0) ([1]; OptoNAM-3 dark PSS (trans), [OptoNAM-3] 5 µM): 0.809
Relative current (IOpto/I0) ([1]; OptoNAM-3 dark PSS (trans), [OptoNAM-3] 20 µM): 0.542
Relative current (IOpto/I0) ([1]; OptoNAM-3 dark PSS (trans), [OptoNAM-3] 30 µM): 0.365
Relative current (IOpto/I0) ([1]; OptoNAM-3 dark PSS (trans), [OptoNAM-3] 67 µM): 0.033
shift in IC50 between wt and GluN1/GluN2B-ΔNTD receptors ([1]; dark): 100 fold
IC50 ([1]; dark, read-out: IC50 on GluN1/GluN2B-ΔNTD receptors in the dark): 20 ± 4 µM
inhibition of GluN1/GluN2C (GluN1/GluN2C): 3.2% ± 0.5%
inhibition of GluN1/GluN2A (GluN1/GluN2A): 2.7% ± 0.5%
Structure (SMILES): c1ccc(/N=N/c2ccc(CCNc3ccncc3)cc2)cc1 [OptoNAM-3, (E)-N-(4-(Phenyldiazenyl)phenethyl)pyridin-4-amine]
